In patent US6288119A, “11,15-O-dialkylprostaglandin E derivatives, process for producing the same, and drugs containing the same as the active ingredient” (Ono Pharmaceuticals Co., Ltd., priority 1997, dated 2001) one finds Ki data, which are given here for seven compounds.

One assay addresses T1, mouse EP1 (Mus musculus, UniProt P35375).
T1 construct: expressed in transfected cells; host or cells: CHO cells
T1 sequence (P35375 1-405): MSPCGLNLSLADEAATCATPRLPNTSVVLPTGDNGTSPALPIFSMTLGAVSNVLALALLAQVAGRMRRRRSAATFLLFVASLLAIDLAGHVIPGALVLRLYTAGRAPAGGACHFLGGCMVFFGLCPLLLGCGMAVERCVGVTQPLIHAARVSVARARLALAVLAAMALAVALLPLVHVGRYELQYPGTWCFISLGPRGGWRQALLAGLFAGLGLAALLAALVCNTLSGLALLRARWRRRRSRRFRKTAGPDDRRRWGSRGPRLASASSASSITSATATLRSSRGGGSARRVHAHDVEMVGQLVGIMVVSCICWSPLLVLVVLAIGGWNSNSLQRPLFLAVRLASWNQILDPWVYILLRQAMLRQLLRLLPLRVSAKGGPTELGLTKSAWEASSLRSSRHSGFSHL
The assay is described as follows: Binding assay using expression cell of prostanoids receptor subtype, EP1 ([3H]-PGE2 binding inhibition, CHO membrane fraction). As to conditions: 2.5 nM [3H]-PGE2, 1 hour at room temperature, pH 6.0, read-out: Dissociation Constant Ki, EP1. The protocol:
(§1) (i) Binding assay using expression cell of prostanoids receptor subtype
(§2) The preparation of membrane fraction was carried out according to the method of Sugimoto et al. [J. Biol. Chem., 267, 6463-6466 (1992)], using expression CHO cell of the prostanoids receptor subtype (mouse EP1, EP2, EP3α, EP4).
(§3) The standard assay mixture containing membrane fraction (0.5 mg/ml), and [3H]-PGE2 in a final volume of 200 μl was incubated for 1 hour at room temperature. The reaction was terminated by addition of 3 ml of ice-cooled buffer. The mixture was filtered through a GF/B glass filter under reduced pressure. The radioactivity associated with the filter was measured by liquid scintillation counting.
(§4) Kd and Bmax values were determined from Scatchard plots [Ann. N.Y. Acad. Sci., 51, 660 (1949)]. Non-specific binding was calculated as the binding in the presence of an excess (2.5 μM) of unlabeled PGE2. In the measurement of 3H-PGE2 binding inhibitory activity, 2.5 nM of [3H]-PGE2 and various concentrations of the compounds of the present invention were added. The following buffer was used in all reactions.
(§5) Buffer; 10 mM potassium phosphate (pH 6.0), 1 mM EDTA, 10 mM MgCl2, 0.1 M NaCl.
(§6) The dissociation constant Ki (μM) of each compound was calculated by the following equation.

A further assay deals with T2, mouse EP4 (Mus musculus, UniProt P32240).
T2 construct: expressed in transfected cells; host or cells: CHO cells
T2 sequence (P32240 whole entry): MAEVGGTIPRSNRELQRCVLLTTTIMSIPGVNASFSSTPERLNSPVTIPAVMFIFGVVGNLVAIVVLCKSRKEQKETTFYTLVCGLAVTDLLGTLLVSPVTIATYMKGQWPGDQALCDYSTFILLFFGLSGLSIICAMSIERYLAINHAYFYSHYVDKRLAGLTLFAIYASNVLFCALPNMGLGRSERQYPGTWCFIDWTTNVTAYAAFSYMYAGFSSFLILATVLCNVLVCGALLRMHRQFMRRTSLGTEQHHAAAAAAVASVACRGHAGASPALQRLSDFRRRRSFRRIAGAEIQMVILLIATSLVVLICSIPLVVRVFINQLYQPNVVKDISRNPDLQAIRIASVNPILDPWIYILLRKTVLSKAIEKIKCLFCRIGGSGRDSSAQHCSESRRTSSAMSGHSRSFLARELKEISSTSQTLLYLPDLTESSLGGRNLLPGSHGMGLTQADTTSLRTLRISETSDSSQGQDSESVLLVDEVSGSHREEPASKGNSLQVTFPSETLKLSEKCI
Nature of the assay: Binding assay using expression cell of prostanoids receptor subtype, EP4 ([3H]-PGE2 binding inhibition, CHO membrane fraction). As to conditions: 2.5 nM [3H]-PGE2, 1 hour at room temperature, pH 6.0, read-out: Dissociation Constant Ki, EP4. As for the experimental part: as §1, §2, §3, §4, §5, §6

The next assay has as its target T3, mouse EP2 (Mus musculus, UniProt Q62053).
T3 construct: expressed in transfected cells; host or cells: CHO cells
The assay is described as follows: Binding assay using expression cell of prostanoids receptor subtype, EP2 ([3H]-PGE2 binding inhibition, CHO membrane fraction). As to conditions: 2.5 nM [3H]-PGE2, 1 hour at room temperature, pH 6.0, read-out: Dissociation Constant Ki, EP2. As for the experimental part: as §1, §2, §3, §4, §5, §6

In a further assay the target is T4, mouse EP3α (Mus musculus, UniProt P30557).
T4 construct: expressed in transfected cells; host or cells: CHO cells
T4 sequence (P30557 1-365): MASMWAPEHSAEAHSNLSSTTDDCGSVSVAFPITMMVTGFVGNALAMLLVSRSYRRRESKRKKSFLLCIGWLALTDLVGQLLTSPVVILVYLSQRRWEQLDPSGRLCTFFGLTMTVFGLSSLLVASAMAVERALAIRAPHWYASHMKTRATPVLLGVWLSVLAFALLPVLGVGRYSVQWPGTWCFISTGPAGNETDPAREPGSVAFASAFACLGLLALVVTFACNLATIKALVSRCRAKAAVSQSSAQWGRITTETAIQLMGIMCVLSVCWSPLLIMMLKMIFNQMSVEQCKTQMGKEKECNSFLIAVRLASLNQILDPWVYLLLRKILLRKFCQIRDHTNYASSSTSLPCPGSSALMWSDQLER
Nature of the assay: Binding assay using expression cell of prostanoids receptor subtype, EP3α ([3H]-PGE2 binding inhibition, CHO membrane fraction). As to conditions: 2.5 nM [3H]-PGE2, 1 hour at room temperature, pH 6.0, read-out: Dissociation Constant Ki, EP3α. The protocol:
as §1, §2, §3, §4, §5, §6

T3 sequence (Q62053 whole entry): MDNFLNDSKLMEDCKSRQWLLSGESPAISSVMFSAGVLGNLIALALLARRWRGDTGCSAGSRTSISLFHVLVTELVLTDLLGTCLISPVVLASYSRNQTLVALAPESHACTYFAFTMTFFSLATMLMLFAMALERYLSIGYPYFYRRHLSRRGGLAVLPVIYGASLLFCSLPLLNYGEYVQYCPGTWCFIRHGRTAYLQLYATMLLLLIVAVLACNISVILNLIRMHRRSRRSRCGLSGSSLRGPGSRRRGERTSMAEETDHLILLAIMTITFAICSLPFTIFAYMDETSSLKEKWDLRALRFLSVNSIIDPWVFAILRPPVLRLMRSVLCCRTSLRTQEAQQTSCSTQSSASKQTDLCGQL

Usually Ki stands for a measure of affinity in units of concentration, obtained from inhibition or displacement. For `CCCCC(C)(C)[C@@H](/C=C/[C@H]1[C@H](OC)CC(=O)[C@@H]1C/C=C\CCCC(=O)O)OC` [1(b), 11α,15α-Dimethoxy-9-oxo-16,16-dimethylprosta-5Z,13E-dienoic acid], the Ki at mouse EP1 stood at 970 nM; at mouse EP4, 2500 nM; on mouse EP2, 530 nM; on mouse EP3α, 2.7 nM.

On to `CCCCCC[C@@H](/C=C/[C@H]1[C@H](OC)CC(=O)[C@@H]1C/C=C\CCCC(=O)O)OC` [1(e), 11α,15α-Dimethoxy-9-oxo-20-methylprosta-5Z,13E-dienoic acid], for which the Ki worked out at 2400 nM on mouse EP1, 3700 nM at mouse EP4, 1300 nM on mouse EP2 and 6.1 nM on mouse EP3α.

Consider `CCCCC[C@@H](/C=C/[C@H]1[C@H](OCC)CC(=O)[C@@H]1C/C=C\CCCC(=O)O)OCC` [Example 2, 11α,15α-Diethoxy-9-oxoprosta-5Z,13E -dienoic acid], for which the Ki on mouse EP1 is over 10000 nM; at mouse EP4, 5900 nM; on mouse EP2, 600 nM; at mouse EP3α it was 40 nM.

Take `CCCCC[C@@H](/C=C/[C@@H]1[C@@H](C/C=C\CCCC(=O)O)[C@H](Cl)C[C@H]1OC)OC` [1(h), 11α,15α-Dimethoxy-9β-chloroprosta-5Z,13E-dienoic acid]: the inhibitory constant (Ki) on mouse EP1 worked out at 39 nM; at mouse EP4, 73 nM; on mouse EP2 it was 34 nM; at mouse EP3α it was 1.7 nM.

`CCCCC[C@@H](/C=C/[C@H]1[C@H](OC)CC(=O)[C@@H]1CCCCCCC(=O)O)OC` [1(a), 11α,15α-Dimethoxy-9-oxoprosta-13E-enoic acid]: the inhibitory constant (Ki) was over 10000 nM on mouse EP1, 1300 nM on mouse EP4, 1100 nM at mouse EP2 and 6.3 nM at mouse EP3α.

As for `COC(/C=C/[C@H]1[C@H](OC)CC(=O)[C@@H]1C/C=C\CCCC(=O)O)COc1ccccc1` (stereo partly drawn) [1(f), 11α,15α-Dimethoxy-9-oxo-16-phenoxy-17,18,19,20-tetranorprosta-5Z,13E-dienoic acid], the inhibition constant (Ki) on mouse EP1 was 310 nM; at mouse EP4 it was over 10000 nM; at mouse EP2, over 10000 nM; at mouse EP3α it was 2.9 nM.

Take `CCCCC[C@@H](/C=C/[C@H]1[C@H](OC)CC(=O)[C@@H]1C/C=C\CCCC(=O)O)OC` [Example 1, 11α,15α-Dimethoxy-9-oxoprosta-5Z,13E-dienoic acid]: the inhibition constant (Ki) is over 10000 nM on mouse EP1, 4200 nM on mouse EP4, 2400 nM on mouse EP2 and 3.6 nM at mouse EP3α.
